Reference: DBAASP
≈ marks a conversion by molar mass, not a printed value. Values belong to the molecule of their own block, whether it stands above or below them.

Experiments:
Assay in all cases: ≥ marks a high value that may be exact or a test limit, other limits are often not marked, values filed in µg/mL are converted to µM
[1] = system: Streptococcus pyogenes ATCC 19615
[2] = system: Candida parapsilosis ATCC 22019
[3] = system: Klebsiella pneumoniae ATCC 13883
[4] = system: Acinetobacter baumannii ATCC 19606
Saccharomyces cerevisiae = system: Saccharomyces cerevisiae
[5] = system: Staphylococcus aureus ATCC 43300
[6] = system: Pseudomonas aeruginosa ATCC 27853
[7] = system: Staphylococcus aureus ATCC 25923
[8] = system: Enterococcus faecalis ATCC 29212
[9] = system: Escherichia coli ATCC 25922
[10] = system: Staphylococcus aureus ATCC BAA-44
Escherichia coli ML-35p = system: Escherichia coli ML-35p
[11] = system: Staphylococcus aureus ST1065
Escherichia coli C600 = system: Escherichia coli C600
[12] = system: Pseudomonas aeruginosa PAO1
[13] = system: Staphylococcus aureus 209P
[14] = system: Streptococcus sanguinis ATCC 10556
[15] = system: Streptococcus mutans UA159
[16] = system: Streptococcus sobrinus ATCC 6715
Shigella dysenteriae = system: Shigella dysenteriae
[17] = system: Bacillus subtilis ATCC 6633
[18] = system: Staphylococcus aureus ATCC 2592
[19] = system: Candida albicans ATCC 2002
Bacillus subtilis DELTA = system: Bacillus subtilis DELTA
[20] = system: Escherichia coli DH5alpha
[21] = system: Zymomonas mobilis ATCC 10988
Candida parapsilosis = system: Candida parapsilosis
[22] = system: Staphylococcus epidermidis
Bacillus subtilis = system: Bacillus subtilis
Proteus mirabilis = system: Proteus mirabilis
Salmonella typhimurium = system: Salmonella typhimurium
Serratia marcescens = system: Serratia marcescens
Pseudomonas aeruginosa = system: Pseudomonas aeruginosa
Candida albicans = system: Candida albicans
Escherichia coli = system: Escherichia coli
Micrococcus luteus = system: Micrococcus luteus
[23] = system: Staphylococcus aureus ATCC 29231
[24] = system: Acinetobacter baumannii ATCC 7978
[25] = system: Klebsiella pneumoniae WGLW2
[26] = system: Pseudomonas aeruginosa PA14

Compound: CC[C@H](C)[C@@H]1NC(=O)CNC(=O)[C@H](CCCN=C(N)N)NC(=O)[C@H](Cc2ccc(O)cc2)NC(=O)[C@@H]2CSSC[C@H](NC1=O)C(=O)N[C@@H](Cc1ccc(O)cc1)C(=O)N[C@@H](CCCN=C(N)N)C(=O)N[C@@H](CCCN=C(N)N)C(=O)N[C@H](C(=O)N[C@@H](CCCN=C(N)N)C(=O)O)CSSC[C@H](NC(=O)[C@H](Cc1c[nH]c3ccccc13)NC(=O)[C@@H](N)CCCCN)C(=O)N[C@@H](Cc1ccccc1)C(=O)N[C@@H](CCCN=C(N)N)C(=O)N[C@@H](CCCN=C(N)N)C(=O)N2 [KWCFRRCYRGICYRRCR]
- MIC (Escherichia coli C600): 1.56 µM (≈ 3.62 µg/mL)
- MIC [12]: > 50 µM
- MIC [13]: ≥ 50 µM

Compound: CC[C@H](C)[C@H](NC(=O)[C@H](Cc1ccccc1)NC(=O)[C@H](CCCCN)NC(=O)[C@H](CC(C)C)NC(=O)[C@H](CC(C)C)NC(=O)[C@@H](N)CCCN=C(N)N)C(=O)N[C@@H](CCCCN)C(=O)N[C@@H](CCCCN)C(=O)N[C@@H](CC(C)C)C(=O)N[C@@H](CC(C)C)C(N)=O [RLLKFIKKLL]
- MIC (Bacillus subtilis DELTA): 31.5 µM (≈ 40 µg/mL)
- MIC [20]: ≥ 315 µM
- MIC [21]: 7.86 µM (≈ 9.99 µg/mL)
- MIC (Candida parapsilosis): 23.6 µM (≈ 30 µg/mL)

Compound: CC[C@H](C)[C@H](NC(=O)CN)C(=O)N[C@@H](CC(C)C)C(=O)N[C@@H](CC(=O)O)C(=O)N[C@H](C(=O)N[C@@H](CC(C)C)C(=O)N[C@@H](CCCCN)C(=O)N[C@@H](CCC(N)=O)C(=O)N[C@@H](Cc1ccccc1)C(=O)N[C@@H](C)C(=O)N[C@@H](CCCCN)C(=O)NCC(=O)N[C@H](C(=O)NCC(=O)N[C@@H](CCCCN)C(=O)N[C@@H](CC(=O)O)C(=O)N[C@@H](CC(C)C)C(=O)N[C@H](C(=O)N[C@@H](CCCCN)C(=O)NCC(=O)N[C@@H](C)C(=O)N[C@@H](C)C(=O)N[C@@H](CCC(N)=O)C(=O)NCC(=O)N[C@H](C(=O)O)C(C)C)C(C)C)C(C)C)[C@@H](C)O [GILDTLKQFAKGVGKDLVKGAAQGV]
- MIC (Shigella dysenteriae): 19.9 µM (≈ 50 µg/mL)
- MIC [22]: 29.8 µM (≈ 75 µg/mL)
- MIC (Bacillus subtilis): ≥ 39.8 µM
- MIC (Proteus mirabilis): 19.9 µM (≈ 50 µg/mL)
- MIC (Salmonella typhimurium): ≥ 39.8 µM
- MIC (Serratia marcescens): ≥ 39.8 µM
- MIC (Saccharomyces cerevisiae): 19.9 µM (≈ 50 µg/mL)
- MIC (Pseudomonas aeruginosa): 39.8 µM (≈ 100 µg/mL)
- MIC (Candida albicans): > 39.8 µM
- MIC (Escherichia coli): 19.9 µM (≈ 50 µg/mL)
- MIC (Micrococcus luteus): 1.99 µM (≈ 5 µg/mL)

Other lines, results leading:

- MIC [1]: 3.12 µM (≈ 6.25 µg/mL)
- MIC [2]: ≥ 50 µM
- MIC [3]: 25 µM (≈ 50.1 µg/mL)
- MIC [4]: 6.25 µM (≈ 12.5 µg/mL)
- MIC (Saccharomyces cerevisiae): 12.5 µM (≈ 25 µg/mL)
- MIC [5]: 6.25 µM (≈ 12.5 µg/mL)
- MIC [6]: 100 µM (≈ 200 µg/mL)
- MIC [7]: 6.25 µM (≈ 12.5 µg/mL)
- MIC [8]: 50 µM (≈ 100 µg/mL)
- MIC [9]: 25 µM (≈ 50.1 µg/mL)
- MIC [10]: 6.25 µM (≈ 12.5 µg/mL)
- MIC (Escherichia coli ML-35p): 25 µM (≈ 50.1 µg/mL)
- MIC [11]: 6.25 µM (≈ 12.5 µg/mL)
Compound: CC[C@H](C)[C@H](NC(=O)[C@H](Cc1cnc[nH]1)NC(=O)[C@@H]1CCCN1C(=O)[C@@H](NC(=O)[C@H](CCSC)NC(=O)[C@H](CO)NC(=O)[C@H](CC(C)C)NC(=O)[C@@H](N)Cc1ccccc1)[C@@H](C)CC)C(=O)N[C@H](C(=O)N[C@@H](CO)C(=O)NCC(=O)N[C@H](C(=O)N[C@@H](C)C(=O)N[C@@H](C)C(=O)N[C@@H](CC(C)C)C(=O)N[C@@H](C)C(=O)N[C@@H](CCCCN)C(=O)N[C@@H](Cc1cnc[nH]1)C(=O)N[C@@H](CC(C)C)C(N)=O)C(C)C)C(C)C [FLSMIPHIVSGVAALAKHL]

- MIC [14]: 16.6 µM (≈ 32 µg/mL)
- MIC [15]: 8.31 µM (≈ 16 µg/mL)
- MIC [16]: 8.31 µM (≈ 16 µg/mL)
Compound: CC(C)[C@H](NC(=O)[C@H](CCCCN)NC(=O)[C@H](CCCCN)NC(=O)[C@H](Cc1c[nH]c2ccccc12)NC(=O)[C@H](CCCCN)NC(=O)[C@H](CCCCN)NC(=O)[C@H](Cc1ccccc1)NC(=O)[C@H](Cc1ccccc1)NC(=O)[C@H](CCCCN)NC(=O)[C@H](CCCCN)NC(=O)[C@H](Cc1c[nH]c2ccccc12)NC(=O)CN)C(=O)N[C@@H](Cc1c[nH]c2ccccc12)C(=O)N[C@@H](CCCCN)C(=O)O [GWKKFFKKWKKVWK]

- MIC [14]: 7.02 µM (≈ 16 µg/mL)
- MIC [15]: 7.02 µM (≈ 16 µg/mL)
- MIC [16]: 7.02 µM (≈ 16 µg/mL)
Compound: CC(C)[C@H](NC(=O)[C@H](CCCN=C(N)N)NC(=O)[C@H](CCCCN)NC(=O)CNC(=O)[C@@H](NC(=O)[C@H](CCCN=C(N)N)NC(=O)[C@H](Cc1c[nH]c2ccccc12)NC(=O)[C@H](Cc1c[nH]c2ccccc12)NC(=O)[C@H](CCCCN)NC(=O)[C@H](CCCCN)NC(=O)[C@H](Cc1ccccc1)NC(=O)[C@H](Cc1ccccc1)NC(=O)[C@H](CCCN=C(N)N)NC(=O)CNC(=O)[C@H](Cc1c[nH]c2ccccc12)NC(=O)CN)C(C)C)C(=O)NCC(=O)N[C@@H](CCCCN)C(=O)O [GWGRFFKKWWRVGKRVGK]

- MIC (Shigella dysenteriae): 0.465 µM (≈ 1.5 µg/mL)
- MIC [17]: 0.465 µM (≈ 1.5 µg/mL)
- MIC [18]: 3.87 µM (≈ 12.5 µg/mL)
- MIC [9]: 1.94 µM (≈ 6.25 µg/mL)
- MIC [19]: 3.87 µM (≈ 12.5 µg/mL)
Compound: CC(C)C[C@H](NC(=O)CNC(=O)[C@@H](NC(=O)[C@H](CCCCN)NC(=O)CNC(=O)[C@H](C)NC(=O)[C@H](Cc1c[nH]c2ccccc12)NC(=O)[C@H](CCCCN)NC(=O)[C@H](CC(C)C)NC(=O)[C@H](CC(C)C)NC(=O)[C@H](Cc1ccccc1)NC(=O)[C@H](CCCCN)NC(=O)[C@H](CC(C)C)NC(=O)[C@@H](NC(=O)[C@H](Cc1ccccc1)NC(=O)[C@@H](N)Cc1ccccc1)C(C)C)C(C)C)C(=O)N[C@@H](CCC(=O)O)C(=O)N[C@@H](Cc1cnc[nH]1)C(=O)N[C@@H](CC(C)C)C(=O)N[C@@H](C)C(=O)N[C@H]1CSSC[C@@H](C(=O)O)NC(=O)[C@H](Cc2c[nH]c3ccccc23)NC(=O)[C@H](CC(N)=O)NC(=O)[C@H](CCCCN)NC(=O)[C@H](Cc2ccccc2)NC(=O)[C@H](CCCCN)NC1=O [FFVLKFLLKWAGKVGLEHLACKFKNWC]

- MIC [23]: ≥ 52.4 µM
- MIC [24]: ≥ 52.4 µM
- MIC [25]: ≥ 52.4 µM
- MIC [26]: ≥ 52.4 µM
Compound: CC[C@H](C)[C@H](NC(=O)[C@H](CCCCN)NC(=O)[C@H](Cc1c[nH]c2ccccc12)NC(=O)[C@H](Cc1c[nH]c2ccccc12)NC(=O)[C@@H](NC(=O)[C@H](CCCCN)NC(=O)[C@H](Cc1c[nH]c2ccccc12)NC(=O)[C@@H](N)CC(C)C)[C@@H](C)CC)C(=O)N[C@@H](Cc1c[nH]c2ccccc12)C(=O)N[C@@H](CCCN=C(N)N)C(=O)N[C@H](C(=O)N[C@@H](Cc1c[nH]c2ccccc12)C(=O)N[C@@H](Cc1c[nH]c2ccccc12)C(=O)N[C@@H](CC(N)=O)C(=O)N[C@@H](Cc1c[nH]c2ccccc12)C(=O)N[C@@H](CCCN=C(N)N)C(=O)O)C(C)C [LWKIWWKIWRVWWNWR]
